Here are results for one compound from patent US7375090B2, “Glucopyranosyloxy-pyrazoles, pharmaceutical compositions containing these compounds, the use thereof and processed for the preparation thereof” (Boehringer Ingelheim International GmbH, priority 2003, dated 2008).

In this experiment the target is T1, human sodium glucose cotransporter 2 (Homo sapiens, UniProt P31639).
T1 construct: expressed in transfected cells; host or cells: CHO-K1 (ATCC No. CCL 61) or HEK293 (ATCC No. CRL-1573), stably transfected with pZeoSV-hSGLT2
T1 sequence (P31639 1-672): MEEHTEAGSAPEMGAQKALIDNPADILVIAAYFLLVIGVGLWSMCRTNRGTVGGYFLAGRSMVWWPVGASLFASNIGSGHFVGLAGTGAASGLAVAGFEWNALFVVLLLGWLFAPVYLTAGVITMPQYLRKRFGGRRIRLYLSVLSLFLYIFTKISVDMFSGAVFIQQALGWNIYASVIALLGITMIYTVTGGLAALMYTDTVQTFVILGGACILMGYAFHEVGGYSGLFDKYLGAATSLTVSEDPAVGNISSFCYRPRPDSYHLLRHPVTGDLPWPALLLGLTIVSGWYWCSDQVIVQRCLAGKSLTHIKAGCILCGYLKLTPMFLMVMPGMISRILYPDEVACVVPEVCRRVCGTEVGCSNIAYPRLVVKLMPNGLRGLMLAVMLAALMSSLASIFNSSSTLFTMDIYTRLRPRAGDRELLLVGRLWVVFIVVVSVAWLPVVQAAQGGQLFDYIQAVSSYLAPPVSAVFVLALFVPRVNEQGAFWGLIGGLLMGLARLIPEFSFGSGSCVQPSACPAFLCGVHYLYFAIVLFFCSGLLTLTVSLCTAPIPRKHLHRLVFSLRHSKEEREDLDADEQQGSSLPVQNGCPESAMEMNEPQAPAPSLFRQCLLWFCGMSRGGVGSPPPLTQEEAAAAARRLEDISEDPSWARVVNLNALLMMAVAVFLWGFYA
As to the kind of experiment: SGLT-2 assay (14C-AMG uptake in CHO-hSGLT2 or HEK-hSGLT2 cells). It is filed as cell-based. As to conditions: inhibition of 14C-AMG uptake; CHO-K1 or HEK293 cells stably transfected with hSGLT2; 2 hours' incubation at 37° C. The procedure: These cell lines transport ^14C-labelled alpha-methyl-glucopyranoside (14C-AMG, Amersham) into the interior of the cell in sodium-dependent manner.
The SGLT-2 assay is carried out as follows:
CHO-hSGLT2 cells are cultivated in Ham's F12 Medium (BioWhittaker) with 10% foetal calf serum and 250 μg/ml zeocin (Invitrogen), and HEK293-hSGLT2 cells are cultivated in DMEM medium with 10% foetal calf serum and 250 μg/ml zeocin (Invitrogen).
The cells are detached from the culture flasks by washing twice with PBS and subsequently treating with trypsin/EDTA. After the addition of cell culture medium the cells are centrifuged, resuspended in culture medium and counted in a Casy cell counter. Then 40,000 cells per well are seeded into a white, 96-well plate coated with poly-D-lysine and incubated overnight at 37° C., 5% CO2. The cells are washed twice with 250 μl of assay buffer (Hanks Balanced Salt Solution, 137 mM NaCl, 5.4 mM KCl, 2.8 mM CaCl2, 1.2 mM MgSO4 and 10 mM HEPES (pH7.4), 50 μg/ml of gentamycin). Two hundred-fifty microliters of assay buffer and 5 μl of test compound are then added to each well and the plate is incubated for a further 15 minutes in the incubator. Five microliters of 10% DMSO are used as the negative control. […] After this incubation the radioactivity of the ^14C-AMG absorbed is measured in a Topcount (Packard) using a ^14C scintillation program.

The EC50 is the concentration that produces a half-maximal response. A higher EC50 goes with weaker potency. Turning to `CCc1ccc(Cc2c(O[C@@H]3O[C@H](CO)[C@@H](O)[C@H](O)[C@H]3O)nn(C3CCOCC3)c2C)cc1` [compound (4) of Example 3, 1-(tetrahydropyran-4-yl)-3-(β-D-glucopyranosyloxy)-4-(4-ethylbenzyl)-5-methyl-1H-pyrazole], the EC50 is roughly 5 nM.
